Test results: patent US5932743A, “Methods for the solid phase synthesis of substituted indole compounds” (American Home Products Corporation, priority 1998, dated 1999)

Target: T1, human estrogen receptor (Homo sapiens, UniProt P03372)
T1 construct: expressed in transfected cells; host or cells: Chinese Hamster Ovary cells (CHO), stably transfected
T1 sequence (P03372 1-595): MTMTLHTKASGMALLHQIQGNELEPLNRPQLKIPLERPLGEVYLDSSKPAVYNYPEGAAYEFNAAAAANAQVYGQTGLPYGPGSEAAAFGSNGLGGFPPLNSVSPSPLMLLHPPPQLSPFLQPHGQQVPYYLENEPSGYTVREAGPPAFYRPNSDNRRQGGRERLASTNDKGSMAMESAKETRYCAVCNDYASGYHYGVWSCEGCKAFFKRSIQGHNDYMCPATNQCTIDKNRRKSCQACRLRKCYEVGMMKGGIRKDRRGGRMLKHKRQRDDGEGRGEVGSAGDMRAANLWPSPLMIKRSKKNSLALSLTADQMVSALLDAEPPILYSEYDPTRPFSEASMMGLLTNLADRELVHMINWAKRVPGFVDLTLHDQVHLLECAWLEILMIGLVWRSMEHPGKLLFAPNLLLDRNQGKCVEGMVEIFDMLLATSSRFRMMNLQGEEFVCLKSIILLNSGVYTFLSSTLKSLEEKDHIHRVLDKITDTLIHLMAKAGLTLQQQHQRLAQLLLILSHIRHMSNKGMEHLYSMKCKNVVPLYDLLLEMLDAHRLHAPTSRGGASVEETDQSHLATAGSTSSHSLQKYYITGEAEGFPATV
Test: 2X VIT ERE Transfection Assay (estrogen receptor assay; luciferase reporter activity compared to 17β-estradiol in CHO cells stably transfected with the human estrogen receptor)
Assay type: cell-based
Settings: 1 μM compound
Protocol: Enhancement of luciferase gene expression in this model is dependent upon estrogen receptor (ER) interaction with a vitellogenin gene estrogen responsive element (ERE) capable of enhancing basal promoter activity. This is a sensitive and rapid methodology to assess estrogenic/antiestrogenic potency of compounds.
48 h prior to treatment the growth medium is replaced with DMEM lacking phenol red+10% dextran coated charcoal stripped FBS (treatment medium). Cells are plated at a density of 5000 cells/well in 96-well plates containing 200 μL of medium/well.
20 μL of this mixture is added to each well of cells and remains on the cells for 16 h. […] Each treatment condition is performed on 8 wells (n=8) which are incubated for 24 h prior to luciferase assay.
The data is logged and automatically sent to a JMP statistical program for analysis. A hard copy printout is also produced at the time of the assay.
A plate containing a standard curve (0.1 to 1.5 milliunits in triplicate) is set up for each experimental run. The plates are analyzed on a Molecular Devices spectrophotometric plate reader at 410 nm. The optical densities for the unknowns are converted to milliunits of activity by mathematical extrapolation from the standard curve. […] The mean and standard deviation is determined from a n=8 for each treatment.

estrogenic classification / activity in words: estrogenic
Compound: CCOC(=O)Cn1c(-c2ccccc2)c(C2=C(C(=O)OC)CCC2)c2ccc(C(=O)O)cc21 [Example 12, 1-Ethoxycarbonylmethyl-3-(2-methoxycarbonyl-cyclopent-1-enyl)-2-phenyl-1H-indole-6-carboxylic Acid]
